Assay [1] concerns R6/2 mice hippocampal slices. In words: Synaptic transmission and plasticity (LTP) in R6/2 mice hippocampal slices. Type of assay: cell-based, mouse. As to the method:
Preparation of acute mice hippocampal slices. Experiments were carried out with 11 to 12 week-old R6/2 and WT mice provided by the Jackson Laboratory (USA). Hippocampal slices (350 μm thickness) were cut with a Macllwain tissue chopper in an ice-cold oxygenated sucrose solution (Saccharose 250, Glucose 11, NaHCO3 26, KCl 2, NaH2PO4 1.2, MgCl2 7, and CaCl2 0.5 in mM). The slices were incubated 1 hour at room temperature in ACSF of the following composition: Glucose 11, NaHCO3 25, NaCl 126, KCl 3.5, NaH2PO4 1.2, MgCl2 1.3, and CaCl2 2 in mM. Then, the slices were let to recover for at least 1 h.
Slice perfusion and temperature control. During the experiments, the slices were continuously perfused with the ACSF (bubbled with 95% O2-5% CO2) at the rate of 3 mL/min with a peristaltic pump (MEA chamber volume: ˜1 mL). Complete solution exchange in the MEA chamber was achieved 20 s after the switch of solutions. The perfusion liquid was continuously pre-heated at 37° C. just before reaching the MEA chamber with a heated-perfusion cannula (PH01, MultiChannel Systems, Reutlingen, Germany). The temperature of the MEA chamber was maintained at 37±0.1° C. with a heating element located in the MEA amplifier headstage.
Input/Output (I/O) curve: from 100 to 800 μA, by 100 μA steps. The stimulus intensity was then set to a fixed value of 250 μA for the short- and long-term synaptic plasticity measurements.
Short-term plasticity properties: two pulses with a decreasing inter-stimuli interval (e.g. 300 ms, 200 ms, 100 ms, 50 ms, 25 ms) were applied. Compound application: fEPSP were recorded for 10 minutes in control conditions (to verify the baseline steadiness) followed by a 15-minute exposure to the compound (or 25 minutes in the presence of vehicle only for control slices). A second I/O protocol and paired-pulse protocol were applied, as described previously, in the continuous presence of the compound.
Long-Term Potentiation (LTP): Following a 10-minute control period (in the presence of the compound or vehicle for control slices), LTP was induced by a 10×TBS. Potentiation of synaptic transmission was then monitored for an additional 60-minute period (in the continuous presence of the compound or vehicle for control slices).

Assay [2] deals with rats. In words: Brennan model - electronic Von Frey test. The format is in vivo, rat. The following applies: Compound I-2 p.o. 10 mg/kg; 120 minutes after treatment. An excerpt: Brennan Model. Surgery: Surgery was done under gas anesthesia (2.5% isoflurane/3 L/min). For all rats, the plantar aspect of the left hind paw was exposed and a 1 cm longitudinal incision was made using a surgical blade, through the skin and fascia of the plantar aspect of the foot, starting 0.5 cm from the proximal edge of the heel and extending toward the toes. The plantaris muscle was elevated and incised longitudinally whereas the insertions remained intact. After hemostasis with gentle pressure, the skin was stitched up with two sutures. After surgery, animals recovered in their cages.
Electronic Von Frey Test. Tactile allodynia was assessed using the electronic Von Frey test 24 h after surgery. The test requires the application of an increasing pressure onto the plantar aspect of the hind paws. The apparatus exerted a steady force on the hind paws. Reaction thresholds were determined as the pressure (g) required to elicit paw withdrawal. Each reaction threshold measurement was repeated three times for both hind paws with intervals of approximately 2 to 3 mins.
(§1) Testing: 120 minutes after treatment. N=4/model/test. Results are expressed for each group as a percentage of activity calculated from the mean value of the vehicle-treated animals and compared to naïve animals, control paw, or cut-off value, depending on the test.

Assay [3] has as its system Healthy rats. In words: Healthy rats - tail flick test. The following applies: Compound I-2 p.o. 10 mg/kg; 120 minutes after treatment. Type of assay: in vivo, rat. The protocol: Tail Flick Test. A radiant heat was applied on the tail. When the rat felt discomfort, it reacted by a sudden tail movement (tail flick) which automatically stopped the stimulation and the timer for the measurement by the animal reaction time or nociceptive reaction latency (period from the beginning of the stimulation until detection of the response of the animal). A cut-off was previously fixed at 10 sec in order to prevent tissue damage.
as §1

Assay [4] relates to Healthy rats. In words: Healthy rats - paw pressure test. The following applies: Compound I-2 p.o. 10 mg/kg; 120 minutes after treatment. Type of assay: in vivo, rat. As to the method: Paw Pressure Test. Static mechanical hyperalgesia is measured. This test requires the application of an increasing pressure on the hind paws between a flat surface and a blunt pointer. To evaluate the analgesic action of a compound, one hind paw of the animal was inflamed by an injection or injured by ligation, while the other hind paw was not injured or inflamed. The apparatus exerted a steadily increasing force on the hind paws. The reaction threshold was determined as the pressure (g) required to elicit paw withdrawal and/or vocalization. The animals were gently handled by the experimenter and static mechanical hyperalgesia were assessed two times for both hind paws.
as §1

The subject of assay [5] is rats. The assay can be described thus: Oxaliplatin - acetone test (reaction time). The following applies: Compound I-2 p.o. 10 mg/kg; 120 minutes after treatment. Type of assay: in vivo, rat. As to the method:
Oxaliplatin. Induction: Acute peripheral neuropathy was induced by a single intraperitoneal injection of oxaliplatin (6 mg/kg, i.p) 30 hours before testing. Acetone test: Cold allodynia was measured using the acetone test. In this test, the latency of hind paw withdrawal was measured after application of a drop of acetone (50 μL) to the plantar surface of both hind paws three times for both hind paws alternatively with intervals of approximately 2-3 min.
as §1

Another assay concerns BDNF. In words: Effect on BDNF protein in the rat dorsal striatum, quinolinic acid lesion model. The following applies: 10 mg/kg once a day for 7 days. The format is in vivo. As to the method: Protocol. Experimental day 1: Rats were deeply anesthetized with isoflurane and each rat received a unilateral infusion of 0.25 μl of 50 mM quinolinic acid (QA) in the dorsal striatum (12.5 nmoles of QA on the left or right hemisphere). The dorsal striatum contralateral to the QA infusion on each rat received a control infusion of 0.25 μl PBS (control side). Some animals were dosed S.C. with vehicle (n=5) or 10 mg/Kg Compound I-2 (n=6) about 30 minutes after QA infusion. Experimental days 2-8: Rats were dosed every 24 h P.O. with Vehicle or 10 mg/Kg Compound I-2. About 24 h after the last dosing of vehicle or Compound I-2, rats were anesthetized, perfused with PBS followed by perfusion with 4% Paraformaldehyde in PBS; brain tissue was collected and placed in a falcon tube covered with 4% Paraformaldehyde (PAF) in PBS for about 14 h at 4° C. and then replaced by PBS with 30% sucrose solution for about 48 h. Brain tissue was cut in 40 μm coronal slices and stored in PBS at 4° C. […] Images from the dorsomedial area around the QA lesion or equivalent area on the control hemisphere were taken using confocal fluorescence microscopy. Images were analyzed using imageJ software to determine the average BDNF intensity in NeuN positive cells.

Assay [6] has as its system rats. In words: Kaolin - gait score. The format is in vivo, rat. The following applies: Compound I-2 p.o. 10 mg/kg; 120 minutes after treatment. The protocol: Kaolin. Induction: In rats, unilateral arthritis was induced by an intra-articular injection of a 10% kaolin suspension into the knee joint of the right hind paw under gas anesthesia (3.5% isoflurane/3 L/min). Gait score: The gait score will be evaluated 3 h 30 min after kaolin administration by:
2: intermittent raising of the paw
as §1

The mark [7] stands for this setting: 855 nM, R6/2 hippocampal slices.

`FC(F)(F)c1n[nH]c(-c2nc(Cc3cncnc3)c3ccccn23)n1` [Compound I-5]: the “Potentiation in R6/2 slices compared to R6/2 control slices” value in assay [1] (855 nM) was “significantly increased”. Further, the “fEPSP amplitude (basal synaptic transmission)” value in assay [1] (855 nM for 15 minutes, R6/2 hippocampal slices) was “did not modify”. Besides, in assay [1] (setting [7]), the I/O characteristics result was “significantly higher” and the Paired-pulse properties result was “significantly increased”. Further, the “LTP: fEPSP increase at endpoint after HFS” value in assay [1] (855 nM, R6/2 hippocampal slices, WT control 36±3%, R6/2 control 15±2%) is on record as 40±6%.

For the compound `Fc1ccccc1Cn1nc(-c2nc(C(F)(F)F)n[nH]2)c2cccnc21` [Compound I-2], in the assay with rats [2], the “% of activity vs. vehicle, Brennan model electronic Von Frey test” value was 16%. In the assay on Healthy rats [3], the “% of activity vs. vehicle, healthy rats tail flick test” value was 15%. Besides, in the assay with Healthy rats [4], the “% of activity vs. vehicle, healthy rats paw pressure test” value was −10%. The “% of activity vs. vehicle, oxaliplatin acetone test (reaction time)” value in the assay with rats [5] was 127%. In addition, in the assay with BDNF, the “BDNF averaged intensity in NeuN positive cells around the QA lesion, as compared to vehicle treatment” value is recorded as “increase” and the “BDNF averaged intensity in NeuN positive cells in the dorsomedial striatum without a lesion (control side), as compared to vehicle treatment” value is recorded as “increase”. Besides, in the assay on rats [6], the “% of activity vs. vehicle, kaolin gait score” value came to 88%.

Source of the values: patent US11690828B2, “Treatment of CNS diseases with sGC stimulators” (Cyclerion Therapeutics, Inc., priority 2016, dated 2023).
